From ChEMBL document CHEMBL1130084, “Further definition of the D1 dopamine receptor pharmacophore: synthesis of trans-6,6a,7,8,9,13b-hexahydro-5H-benzo[d]naphth[2,1-b]azepines as rigid analogues of beta-phenyldopamine” (J Med Chem, 1997)

Tests used:
[1] = biological target: D(1A) dopamine receptor (Rattus norvegicus) (UniProt P18901); assay: The compound is evaluated for the affinity towards Dopamine receptor D1, using [3H]- SCH 23390 as ligand on rat striatal membranes.
[2] = biological target: D(2) dopamine receptor (Rattus norvegicus) (UniProt P61169); assay: The compound is evaluated for the affinity towards Dopamine receptor D2, using [3H]-spiperone as ligand on rat striatal membranes.
D(2) dopamine receptor (Rattus norvegicus), sequence (P61169 whole entry): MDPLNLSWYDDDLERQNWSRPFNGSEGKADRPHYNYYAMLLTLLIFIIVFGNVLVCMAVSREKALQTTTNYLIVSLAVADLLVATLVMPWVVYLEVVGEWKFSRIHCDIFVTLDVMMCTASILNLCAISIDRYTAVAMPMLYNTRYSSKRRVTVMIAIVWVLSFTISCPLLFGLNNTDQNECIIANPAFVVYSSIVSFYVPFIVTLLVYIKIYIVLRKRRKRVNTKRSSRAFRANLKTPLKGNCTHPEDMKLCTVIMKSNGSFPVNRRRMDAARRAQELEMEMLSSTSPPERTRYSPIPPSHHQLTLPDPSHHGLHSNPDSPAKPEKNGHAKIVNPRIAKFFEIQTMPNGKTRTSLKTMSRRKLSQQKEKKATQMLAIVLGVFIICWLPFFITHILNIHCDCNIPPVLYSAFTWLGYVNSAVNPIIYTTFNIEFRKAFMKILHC

D(1A) dopamine receptor (Rattus norvegicus), sequence (P18901 whole entry): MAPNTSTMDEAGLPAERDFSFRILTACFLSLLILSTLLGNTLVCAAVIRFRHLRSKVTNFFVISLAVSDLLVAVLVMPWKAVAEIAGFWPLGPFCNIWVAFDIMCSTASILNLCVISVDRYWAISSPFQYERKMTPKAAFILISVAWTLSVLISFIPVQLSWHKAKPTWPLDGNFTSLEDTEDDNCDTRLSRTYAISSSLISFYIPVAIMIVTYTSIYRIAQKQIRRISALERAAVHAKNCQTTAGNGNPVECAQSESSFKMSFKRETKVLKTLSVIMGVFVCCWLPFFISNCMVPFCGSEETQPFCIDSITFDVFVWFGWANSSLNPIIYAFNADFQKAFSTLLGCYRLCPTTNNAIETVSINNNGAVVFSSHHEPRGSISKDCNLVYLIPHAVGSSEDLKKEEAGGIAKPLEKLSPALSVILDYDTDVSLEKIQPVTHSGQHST

| SMILES | K0.5 [1] [nM] | K0.5 [2] [nM] |
| --- | --- | --- |
| Oc1cc2c(cc1O)[C@H]1c3ccccc3CN[C@@H]1CC2 | 2.8 | – |
| Oc1cc2c(cc1O)[C@H]1c3ccccc3CCN[C@@H]1CC2 | 2850 | 2220 |
| CN1CCc2ccccc2[C@@H]2c3cc(O)ccc3CC[C@H]21 | 3950 | > 10000 |
| CN1CCc2ccccc2[C@@H]2c3cc(O)c(I)cc3CC[C@H]21 | 1380 | 2960 |
| CN1Cc2ccccc2[C@@H]2c3cc(O)c(Br)cc3CC[C@H]21 | 322 | – |
